The source of these data is paper PMC7070382, “Cannabidiol Protects Dopaminergic Neurons in Mesencephalic Cultures against the Complex I Inhibitor Rotenone Via Modulation of Heme Oxygenase Activity and Bilirubin” (Antioxidants, 2020).

The subject of experiment [1] is T1, heme oxygenase (HO).
T1 construct: gene Hmox1; endogenous enzyme in J774A.1 cell homogenate; isoform not specified
Nature of the experiment: in vitro HO activity (hemin to bilirubin, spectrophotometric) in cell homogenate; Lineweaver-Burk kinetics. It counts as biochemical.

Experiment [2] concerns T1, heme oxygenase (HO). Nature of the experiment: in vitro HO activity (hemin to bilirubin, spectrophotometric) in cell homogenate. It counts as biochemical.

Take `C=C(C)[C@@H]1CCC(C)=C[C@H]1c1c(O)cc(CCCCC)cc1O` [CBD, cannabidiol]: the IC50 in the experiment with heme oxygenase (HO) [1] is 30 µM. In other words, the double-digit micromolar range. In the case of `CCCCCc1cc(O)c2c(c1)OC(C)(C)[C@@H]1CCC(C)=C[C@@H]21` [THC, tetrahydrocannabinol], 56 µM corresponded to half-maximal inhibition in the experiment with heme oxygenase (HO) [2] (IC50).

By IC50 is commonly meant the midpoint of a concentration-inhibition curve. Read a low IC50 as higher potency.
